Reference: ChEMBL document CHEMBL1201862, “PubChem BioAssay data set” (2004)
Values belong to the compound of their own block, whether it stands above or below them. The source made the active and inactive calls.

Legend:
[1] = molecular target: Metabotropic glutamate receptor 4 (Rattus norvegicus, UniProt P31423); experiment: Modulation of the Metabotropic Glutamate Receptor mGluR4: Rat PAM Potency. [Related pubchem assays (depositor defined):AID2437, AID2807]; format: functional
[2] = inhibitors of intracellular T. cruzi replication, confirmation, NIH3T3 host cells, beta-gal luminescence (AID 2044); format: functional, cell-based;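 note: intracellular parasites grown in NIH/3T3 mouse fibroblasts as host cells; luminescent beta-galactosidase reporter signal from transgenic T. cruzi replicating inside host cells; inhibitors lower the luminescence signal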
SUMO-activating enzyme [3] = molecular target: T1, SUMO-activating enzyme (Homo sapiens, UniProt Q9UBT2); experiment: SUMOylation inhibitor hit validation, confirmation, SUMOylation inhibitor project, biochemical, AlphaScreen (AID 2018); format: functional
[4] = molecular target: T2, Mitochondrial peptide methionine sulfoxide reductase (Bos taurus, UniProt P54149); format: functional;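 note: absorbance read-out, biochemical high-throughput dose-response screen for MsrA inhibitors, confirmatory; recombinant bovine MsrA coupled to E. coli TrxB with NADPH and selenocystamine; potency is for inhibitors of MsrA activity on DMSO substrate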
T2 sequence (P54149 whole entry): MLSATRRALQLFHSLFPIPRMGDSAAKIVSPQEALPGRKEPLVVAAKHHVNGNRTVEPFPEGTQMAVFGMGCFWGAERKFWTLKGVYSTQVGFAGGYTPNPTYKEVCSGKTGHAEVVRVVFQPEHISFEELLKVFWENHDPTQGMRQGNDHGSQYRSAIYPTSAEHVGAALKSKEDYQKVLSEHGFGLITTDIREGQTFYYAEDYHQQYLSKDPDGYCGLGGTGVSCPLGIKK

[5] = molecular target: Serine/threonine-protein phosphatase (Homo sapiens, UniProt Q9BPW0); experiment: PP5 phosphatase inhibitors, dose response, biochemical, fluorescence (AID 2395)
[6] = molecular target: T3, Apoptotic protease-activating factor 1 (Homo sapiens, UniProt O14727); format: functional
T3 sequence (O14727 whole entry): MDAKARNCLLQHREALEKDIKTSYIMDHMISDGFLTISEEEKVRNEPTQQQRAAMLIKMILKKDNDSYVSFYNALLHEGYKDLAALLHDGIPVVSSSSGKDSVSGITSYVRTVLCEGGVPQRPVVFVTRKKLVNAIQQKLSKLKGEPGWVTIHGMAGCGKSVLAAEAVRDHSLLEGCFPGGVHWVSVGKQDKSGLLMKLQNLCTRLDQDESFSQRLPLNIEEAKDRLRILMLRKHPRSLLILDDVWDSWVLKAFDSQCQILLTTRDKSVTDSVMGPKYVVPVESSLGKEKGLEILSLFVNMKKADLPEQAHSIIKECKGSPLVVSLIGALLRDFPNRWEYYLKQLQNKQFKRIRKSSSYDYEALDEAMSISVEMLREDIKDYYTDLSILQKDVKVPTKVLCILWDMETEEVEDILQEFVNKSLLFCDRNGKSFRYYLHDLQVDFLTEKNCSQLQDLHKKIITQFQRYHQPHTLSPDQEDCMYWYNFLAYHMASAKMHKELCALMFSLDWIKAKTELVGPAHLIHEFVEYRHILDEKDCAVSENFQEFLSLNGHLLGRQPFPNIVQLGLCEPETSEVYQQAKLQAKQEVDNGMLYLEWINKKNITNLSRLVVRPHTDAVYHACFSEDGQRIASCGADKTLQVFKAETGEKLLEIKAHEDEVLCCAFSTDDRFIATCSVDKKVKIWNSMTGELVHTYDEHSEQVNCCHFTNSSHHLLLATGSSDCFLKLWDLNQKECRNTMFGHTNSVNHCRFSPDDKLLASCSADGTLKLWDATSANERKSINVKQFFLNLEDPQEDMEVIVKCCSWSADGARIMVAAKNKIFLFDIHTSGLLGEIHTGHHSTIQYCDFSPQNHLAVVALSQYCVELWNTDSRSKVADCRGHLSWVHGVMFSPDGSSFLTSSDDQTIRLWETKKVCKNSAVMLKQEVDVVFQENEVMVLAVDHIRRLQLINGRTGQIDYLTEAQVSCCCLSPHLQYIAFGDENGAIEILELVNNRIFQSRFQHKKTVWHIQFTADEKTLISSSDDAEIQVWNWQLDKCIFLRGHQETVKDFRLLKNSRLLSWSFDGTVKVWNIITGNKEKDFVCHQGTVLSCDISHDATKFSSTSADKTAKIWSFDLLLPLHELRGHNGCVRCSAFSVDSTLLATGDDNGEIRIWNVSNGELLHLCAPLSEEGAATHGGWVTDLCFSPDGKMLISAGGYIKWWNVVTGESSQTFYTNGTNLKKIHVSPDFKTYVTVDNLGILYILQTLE

[7] = cytotoxicity toward NIH3T3 fibroblasts, dose response, counter-screen, cell-based, ATP luminescence, mouse fibroblasts (AID 2010); format: functional;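 note: cells exposed to compound for about 90 hours before reading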
[8] = molecular target: Serine/threonine-protein phosphatase PP1-alpha catalytic subunit (Homo sapiens, UniProt P62136); experiment: PP1 phosphatase inhibitors, dose response, biochemical, fluorescence (AID 2394)
SUMO-activating enzyme [9] = molecular target: T1, SUMO-activating enzyme; experiment: inhibitors of in vitro SUMOylation cascade, primary screen, biochemical, HTRF, uHTS (AID 2006); format: protein-complex assay
[10] = molecular target: Heat shock protein HSP 90-alpha (Homo sapiens, UniProt P07900); experiment: Luminescence-based dose response biochemical high throughput screening assay for inhibitors of the Heat Shock Protein 90 (HSP90). [Related pubchem assays: 1831 (Summary AID.), 1846 (Confirmation screen.), 1789 (Primary screen.)]
INS1 = experiment: beta cell apoptosis inhibitors, cytokine rescue, dose response, luminescence, retest (AID 449756); format: functional, cell-based; details: Rattus norvegicus;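 note: cell death triggered by IL-1 beta plus TNF-alpha plus IFN-gamma mixture; protective hits raise ATP signal compared with cytokine alone wells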
Hexokinase HKDC1 = molecular target: T4, Hexokinase HKDC1 (Homo sapiens, UniProt Q2TB90); experiment: HKDC1 hexokinase inhibitors, dose response, biochemical, W721R variant (AID 504729); format: functional
T4 sequence (Q2TB90 whole entry): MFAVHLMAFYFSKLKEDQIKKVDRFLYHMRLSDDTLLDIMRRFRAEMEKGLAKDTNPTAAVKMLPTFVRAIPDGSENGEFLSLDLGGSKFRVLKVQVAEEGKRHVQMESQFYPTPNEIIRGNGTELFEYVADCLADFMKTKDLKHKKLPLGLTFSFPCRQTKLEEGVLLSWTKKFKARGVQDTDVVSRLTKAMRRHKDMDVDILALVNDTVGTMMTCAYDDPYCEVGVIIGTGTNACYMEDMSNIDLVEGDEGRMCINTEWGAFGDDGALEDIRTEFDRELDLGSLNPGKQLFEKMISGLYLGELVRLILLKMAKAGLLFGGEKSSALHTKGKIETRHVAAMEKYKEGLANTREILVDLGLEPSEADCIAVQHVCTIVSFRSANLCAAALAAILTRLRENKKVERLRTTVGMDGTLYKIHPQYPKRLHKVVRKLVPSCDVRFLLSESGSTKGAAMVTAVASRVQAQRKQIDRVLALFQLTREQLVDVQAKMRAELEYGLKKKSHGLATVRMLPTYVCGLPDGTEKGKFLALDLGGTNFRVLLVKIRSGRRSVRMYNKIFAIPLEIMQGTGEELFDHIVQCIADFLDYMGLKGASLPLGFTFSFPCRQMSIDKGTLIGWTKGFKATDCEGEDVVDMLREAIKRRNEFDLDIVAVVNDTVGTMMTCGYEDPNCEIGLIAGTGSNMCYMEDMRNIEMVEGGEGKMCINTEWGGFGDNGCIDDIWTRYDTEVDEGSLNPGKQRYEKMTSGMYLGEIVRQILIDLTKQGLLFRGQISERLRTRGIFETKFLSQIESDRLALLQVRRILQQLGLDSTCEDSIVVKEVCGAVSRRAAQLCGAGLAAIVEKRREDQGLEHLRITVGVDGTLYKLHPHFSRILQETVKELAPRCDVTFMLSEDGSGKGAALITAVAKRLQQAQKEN

[11] = molecular target: T5, Ubiquitin-conjugating enzyme E2 N (Homo sapiens, UniProt P61088); format: functional;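 note: Dose-response confirmation in a TR-FRET assay detecting UBC13-driven polyubiquitin chain formation, inhibition measured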
T5 sequence (P61088 whole entry): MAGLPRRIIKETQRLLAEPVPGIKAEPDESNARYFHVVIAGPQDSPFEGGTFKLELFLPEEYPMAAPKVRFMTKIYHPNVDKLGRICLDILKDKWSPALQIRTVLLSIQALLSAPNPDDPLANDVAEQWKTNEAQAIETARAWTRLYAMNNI

[12] = cytotoxicity in MIN6 insulinoma cells, dose response, cytotoxicity control, cell-based, mouse insulinoma (AID 2122); format: functional;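 note: confirmatory high-throughput counterscreen run to flag cytotoxic compounds; mouse MIN-6 beta cells carrying an insulin promoter eGFP reporter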
X-box-binding protein 1 = X-box-binding protein 1 (Homo sapiens, UniProt P17861); format: functional, Cricetulus griseus;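 note: confirmatory dose-response counter-screen serving a CHOP assay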
[13] = C. albicans growth with fluconazole, confirmation, fluorescence, retest (AID 2467); format: functional, cell-based
[14] = ZM109 Env clade C HIV-1 fusion inhibitors, dose response, HeLa effector, CEM target cells, luciferase, cherry-pick (AID 652058); format: functional, cell-based
Cysteine protease ATG4B = molecular target: T6, Cysteine protease ATG4B (Homo sapiens, UniProt Q9Y4P1); format: functional;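 note: Fluorescence-based dose-response confirmation assay measuring inhibition of ATG4B activity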
T6 sequence (Q9Y4P1 whole entry): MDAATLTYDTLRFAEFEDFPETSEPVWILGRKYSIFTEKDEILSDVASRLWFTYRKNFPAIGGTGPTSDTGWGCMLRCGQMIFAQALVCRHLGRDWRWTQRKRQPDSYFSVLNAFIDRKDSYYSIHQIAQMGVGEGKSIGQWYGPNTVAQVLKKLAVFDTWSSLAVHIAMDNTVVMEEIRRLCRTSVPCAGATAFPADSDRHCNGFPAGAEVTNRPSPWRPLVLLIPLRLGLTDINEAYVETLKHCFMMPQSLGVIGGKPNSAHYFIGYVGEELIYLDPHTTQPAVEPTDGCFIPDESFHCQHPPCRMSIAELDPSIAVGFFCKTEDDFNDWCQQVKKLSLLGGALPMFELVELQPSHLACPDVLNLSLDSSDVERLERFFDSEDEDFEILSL

[15] = inhibitors of clade B AD8 Env fusion, dose response, cell-based, cherry-pick (AID 652062); format: functional;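 note: luciferase signal from cell-cell fusion driven by HIV-1 clade B AD8 Env; potency is for inhibitors of fusion seen as a drop in luminescence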
[16] = NIH-3T3 fibroblast cytotoxicity, dose response, cytotoxicity control, cell-based, fluorescence, Alamar Blue, secondary assay (AID 2327); format: functional;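 note: NIH-3T3 mouse fibroblasts cultured with fluconazole at 8 µg/mL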
[17] = insulin promoter down-regulators in MIN6 cells, imaging, high-content screening, mouse beta cells (AID 1628); format: functional
[18] = growth suppression of PTEN-null colon cells, dose response, cell-based, HCT116 PTEN knockout (AID 1047); format: functional;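 note: HCT116 colon tumor cells with PTEN knocked out; cells exposed to compound for 60 hours before readout; potency for loss of cell viability measured by luminescence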
[19] = off-target signal loss in HeLa-CEM21 co-culture – HeLa F-luc CTL cells, cherry-picked, counter-screen for HIV-1 Env fusion inhibitor project, dose response (AID 652040); format: functional, cell-based;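 note: potency for signal decrease marking cytotoxic or nonspecific inhibition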
[20] = CEM21 lymphoblast cell cytotoxicity, dose response, cytotoxicity control for viral fusion inhibitor project, CellTiter-Glo luminescence, cherry-picked (AID 652042); format: functional, cell-based;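 note: potency for signal decrease meaning cytotoxicity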
Phospholipase A2 = Phospholipase A2 (Homo sapiens, UniProt P04054); format: functional;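 note: confirmatory dose-response counterscreen on phospholipase A2, testing hits that came from an ultra-high-throughput screen for ATG4B inhibitors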
[21] = growth suppression of beta-catenin-knockout colon cells, dose response, cell-based, HCT116, human colon tumor (AID 1045); format: functional;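 note: HCT116 colon tumor cells with beta catenin knocked out; cells exposed to compound for 60 hours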
[22] = inhibitors of HIV Env-driven cell fusion, dose response, cherry-pick (AID 652057); format: functional, cell-based

T1 sequence (Q9UBE0 whole entry): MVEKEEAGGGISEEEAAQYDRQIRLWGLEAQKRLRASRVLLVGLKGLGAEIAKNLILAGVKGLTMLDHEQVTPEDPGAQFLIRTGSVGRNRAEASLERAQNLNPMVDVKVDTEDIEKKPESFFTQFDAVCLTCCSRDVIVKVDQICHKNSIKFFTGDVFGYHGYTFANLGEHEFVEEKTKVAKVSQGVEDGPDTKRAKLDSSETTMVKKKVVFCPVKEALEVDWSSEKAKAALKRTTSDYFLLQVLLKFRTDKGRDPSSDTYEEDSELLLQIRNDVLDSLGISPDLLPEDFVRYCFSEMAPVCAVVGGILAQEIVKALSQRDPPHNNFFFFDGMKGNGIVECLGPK
T1 sequence (Q9UBT2 whole entry): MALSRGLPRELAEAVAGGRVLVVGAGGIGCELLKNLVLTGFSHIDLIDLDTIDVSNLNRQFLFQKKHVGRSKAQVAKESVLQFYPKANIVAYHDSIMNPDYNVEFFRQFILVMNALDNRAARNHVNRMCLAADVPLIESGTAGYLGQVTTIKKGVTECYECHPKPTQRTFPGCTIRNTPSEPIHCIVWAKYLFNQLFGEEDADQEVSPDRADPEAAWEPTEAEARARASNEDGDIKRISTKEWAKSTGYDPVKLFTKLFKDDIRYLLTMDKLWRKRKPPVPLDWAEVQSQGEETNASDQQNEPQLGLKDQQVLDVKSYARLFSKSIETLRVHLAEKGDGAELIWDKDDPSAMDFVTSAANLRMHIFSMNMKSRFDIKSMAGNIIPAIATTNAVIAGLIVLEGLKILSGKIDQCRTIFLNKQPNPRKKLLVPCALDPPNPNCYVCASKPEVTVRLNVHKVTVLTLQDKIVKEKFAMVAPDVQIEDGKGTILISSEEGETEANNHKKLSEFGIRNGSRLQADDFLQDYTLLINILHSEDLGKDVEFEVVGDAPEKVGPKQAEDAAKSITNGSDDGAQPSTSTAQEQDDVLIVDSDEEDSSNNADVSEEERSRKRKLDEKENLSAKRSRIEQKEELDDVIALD
Chain of Metabotropic glutamate receptor 4 (P31423 whole entry): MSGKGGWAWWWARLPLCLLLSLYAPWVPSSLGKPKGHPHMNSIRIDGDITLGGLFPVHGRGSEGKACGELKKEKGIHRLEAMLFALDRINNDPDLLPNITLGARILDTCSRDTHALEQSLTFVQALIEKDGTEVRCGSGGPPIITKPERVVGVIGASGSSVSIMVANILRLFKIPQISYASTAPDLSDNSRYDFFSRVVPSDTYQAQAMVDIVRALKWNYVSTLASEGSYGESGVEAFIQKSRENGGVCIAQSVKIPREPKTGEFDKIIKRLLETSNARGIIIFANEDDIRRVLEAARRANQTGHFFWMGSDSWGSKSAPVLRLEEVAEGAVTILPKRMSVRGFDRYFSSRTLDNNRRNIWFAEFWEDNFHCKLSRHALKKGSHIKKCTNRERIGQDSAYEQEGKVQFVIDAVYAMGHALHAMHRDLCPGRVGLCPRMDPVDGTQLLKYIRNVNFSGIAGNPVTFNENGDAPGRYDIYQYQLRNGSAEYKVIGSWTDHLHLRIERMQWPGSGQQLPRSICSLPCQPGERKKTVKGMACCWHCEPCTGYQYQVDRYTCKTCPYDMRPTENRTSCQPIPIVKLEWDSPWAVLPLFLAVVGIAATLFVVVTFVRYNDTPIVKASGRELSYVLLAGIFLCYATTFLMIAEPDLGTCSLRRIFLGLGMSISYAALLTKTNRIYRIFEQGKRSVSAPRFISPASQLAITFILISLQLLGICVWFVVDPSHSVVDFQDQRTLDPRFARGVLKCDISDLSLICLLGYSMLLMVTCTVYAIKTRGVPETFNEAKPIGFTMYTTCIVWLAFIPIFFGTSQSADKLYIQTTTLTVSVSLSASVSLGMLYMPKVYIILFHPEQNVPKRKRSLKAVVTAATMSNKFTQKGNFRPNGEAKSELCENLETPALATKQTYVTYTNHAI
Chain of X-box-binding protein 1 (P17861 whole entry): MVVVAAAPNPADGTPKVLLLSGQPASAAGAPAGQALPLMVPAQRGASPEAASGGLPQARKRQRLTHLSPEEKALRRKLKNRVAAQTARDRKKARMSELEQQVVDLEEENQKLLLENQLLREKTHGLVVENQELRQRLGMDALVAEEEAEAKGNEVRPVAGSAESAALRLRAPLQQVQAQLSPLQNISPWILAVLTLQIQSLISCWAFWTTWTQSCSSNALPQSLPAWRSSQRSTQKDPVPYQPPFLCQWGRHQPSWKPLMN
Chain of Phospholipase A2 (P04054 whole entry): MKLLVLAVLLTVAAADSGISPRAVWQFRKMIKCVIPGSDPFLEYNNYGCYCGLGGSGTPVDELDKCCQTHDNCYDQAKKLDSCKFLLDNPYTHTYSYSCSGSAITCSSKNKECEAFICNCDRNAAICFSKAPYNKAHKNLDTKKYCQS
Chain of Serine/threonine-protein phosphatase PP1-alpha catalytic subunit (P62136 whole entry): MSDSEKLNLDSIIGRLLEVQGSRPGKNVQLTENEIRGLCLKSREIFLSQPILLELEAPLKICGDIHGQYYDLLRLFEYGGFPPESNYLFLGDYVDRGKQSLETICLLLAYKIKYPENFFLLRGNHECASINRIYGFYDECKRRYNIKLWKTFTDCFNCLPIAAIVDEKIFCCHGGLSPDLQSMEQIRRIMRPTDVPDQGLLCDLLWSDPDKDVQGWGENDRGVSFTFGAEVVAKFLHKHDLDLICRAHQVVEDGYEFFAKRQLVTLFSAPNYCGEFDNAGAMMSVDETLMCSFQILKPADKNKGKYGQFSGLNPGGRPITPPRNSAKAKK
Chain of Serine/threonine-protein phosphatase (Q9BPW0 whole entry): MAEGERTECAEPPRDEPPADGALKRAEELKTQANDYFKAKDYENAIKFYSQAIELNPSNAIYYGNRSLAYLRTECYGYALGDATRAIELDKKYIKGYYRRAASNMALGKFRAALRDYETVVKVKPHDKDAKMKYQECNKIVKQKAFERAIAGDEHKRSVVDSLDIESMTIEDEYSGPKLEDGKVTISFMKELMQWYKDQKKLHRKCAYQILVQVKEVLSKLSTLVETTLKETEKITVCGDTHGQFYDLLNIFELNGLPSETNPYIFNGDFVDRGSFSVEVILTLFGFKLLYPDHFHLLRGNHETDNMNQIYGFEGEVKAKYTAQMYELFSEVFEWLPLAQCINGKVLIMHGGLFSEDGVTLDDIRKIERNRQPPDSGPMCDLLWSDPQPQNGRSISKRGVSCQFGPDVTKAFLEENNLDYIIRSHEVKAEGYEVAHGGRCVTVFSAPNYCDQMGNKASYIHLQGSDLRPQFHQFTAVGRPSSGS

- EC50 [1]: 0.07 µM (active)
SMILES: O=C(Nc1ccc(N2C(=O)c3ccccc3C2=O)c(Cl)c1)c1ccccn1

SMILES: CC(=O)Nc1ccc(NC2=C/C(=N/S(=O)(=O)c3cccs3)c3ccccc3C2=O)cc1
- EC50 [2]: 3.44 µM (active)
- IC50 (SUMO-activating enzyme [3]): 1.34 µM (active)
- IC50 [4]: 14.3 µM (inactive)
- IC50 [5]: 12.3 µM (not active)
- IC50 [6]: 1.48 µM (active)
- EC50 [7]: 3.58 µM (active)
- IC50 [8]: > 67 µM (not active)
- IC50 (SUMO-activating enzyme [9]): > 100 µM (inactive)
- IC50 [10]: 1.61 µM (active)
- AC50 (INS1): 4.23 µM (active)
- IC50 (Hexokinase HKDC1): 3.72 µM (active)

SMILES: Cc1cc(Nc2ccc(Cl)cc2)nc(NCc2ccccc2)n1
- IC50 [11]: > 20 µM (inactive)
- IC50 [12]: 0.878 µM (active)
- Absolute IC50 (XBP1) (X-box-binding protein 1): < 10 µM
- EC50 [13]: 2.45 µM (active)
- AC50 [14]: 3.31 µM (active)
- IC50 (Cysteine protease ATG4B): 10.9 µM (active)
- AC50 [15]: 8.5 µM (active)
- EC50 [16]: > 150 µM (inactive)
- IC50 [17]: 1.51 µM (active)
- EC50 [18]: 5.72 µM (active)
- AC50 [19]: 4.05 µM (active)
- AC50 [20]: 15.3 µM (active)
- IC50 (Phospholipase A2): 15.4 µM (active)
- EC50 [21]: 6.7 µM (active)
- AC50 [22]: 2.98 µM (active)
